Measurements published in BindingDB's records for doi:10.1016/s0960-894x(00)00113-x (Kyoto University, 2000).

Assay: The compound was tested for its inhibitory activity against platelet aggregation

Compound | IC50
CC(C)(C(=O)N1CCC(CC(=O)O)CC1)[C@H](NC(=O)c1ccc(C(=N)N)cc1)c1cccc(O)c1 | 38 nM
CC(C)(C(=O)N1CCC(CC(=O)O)CC1)[C@H](NC(=O)c1ccc(C(=N)N)cc1)c1ccc2ccccc2c1 | 191 nM
N=C(N)c1ccc(C(=O)N[C@@H](CC(=O)N2CCC(CC(=O)O)CC2)C(=O)Oc2ccccc2)cc1 | 4070 nM
N=C(N)c1ccc(C(=O)N[C@H](CC(=O)N2CCC(CC(=O)O)CC2)c2ccccc2)cc1 | 5250 nM
CC[C@@H](NC(=O)c1ccc(C(=N)N2CCSC2)cc1F)C(C)(C)C(=O)N1CCC(CC(=O)O)CC1 | 22 nM
CC(C)[C@@H](CC(=O)N1CCC(CC(=O)O)CC1)NC(=O)c1ccc(C(=N)N)cc1 | 9120 nM
CC[C@@H](NC(=O)c1ccc(C(=N)N)cc1)C(C)(C)C(=O)N1CCC(CC(=O)O)CC1 | 43 nM
COC(/C=C/c1ccc(C(=N)N)cc1)C(C)(C)C(=O)N1CCC(CC(=O)O)CC1 (stereo unspecified) | 126 nM
CCCCNC(=N)c1ccc(C(=O)N[C@H](CC)C(C)(C)C(=O)N2CCC(CC(=O)O)CC2)c(F)c1 | 501 nM
NC(N)=Nc1ccc(C(=O)NCCC(=O)N2CCC(C(=O)O)CC2)cc1 | 759000 nM
COC(CCc1ccc(C(=N)N)cc1)C(C)(C)C(=O)N1CCC(CC(=O)O)CC1 (stereo unspecified) | 240 nM
CC(C)(C(=O)N1CCC(CC(=O)O)CC1)[C@H](NC(=O)c1ccc(C(=N)N)cc1)c1ccc(Cl)cc1 | 331 nM
CC[C@@H](NC(=O)c1ccc(C(=N)N2CCCC2)cc1F)C(C)(C)C(=O)N1CCC(CC(=O)O)CC1 | 45 nM
CC(C)(C(=O)N1CCC(CC(=O)O)CC1)[C@H](NC(=O)c1ccc(C(=N)N)cc1Cl)c1ccccc1 | 186 nM
N=C(N)c1ccc(C(=O)NCCC(=O)N2CCC(C(=O)O)CC2)cc1 | 33100 nM
CC(C)(C(=O)N1CCC(CC(=O)O)CC1)[C@H](NC(=O)c1ccc(C(=N)N)cc1)c1ccc(O)cc1 | 110 nM
C[C@@H](CC(=O)N1CCC(CC(=O)O)CC1)NC(=O)c1ccc(C(=N)N)cc1 | 5010 nM
CN(C(=O)c1ccc(C(=N)N)cc1)[C@H](c1ccccc1)C(C)(C)C(=O)N1CCC(CC(=O)O)CC1 | 151 nM
C[C@@H](NC(=O)c1ccc(C(=N)N)cc1)C(C)(C)C(=O)N1CCC(CC(=O)O)CC1 | 41 nM

Compound | IC50
CC[C@@H](NC(=O)c1ccc(C(=N)N2CCOCC2)cc1F)C(C)(C)C(=O)N1CCC(CC(=O)O)CC1 | 79 nM
C[C@H](NC(=O)c1ccc(C(=N)N)cc1)C(=O)N1CCC(CC(=O)O)CC1 | 30200 nM
CN(CC(=O)N1CCC(C(=O)O)CC1)C(=O)c1ccc(N=C(N)N)cc1 | 100000 nM
CCCC[C@@H](NC(=O)c1ccc(C(=N)N)cc1F)C(C)(C)C(=O)N1CCC(CC(=O)O)CC1 | 37 nM
COC(=O)C1CCN(C(=O)CN(C)C(=O)c2ccc(C(=N)N)cc2)CC1 | 331000 nM
CN(CC(=O)N1CCC(CC(=O)O)CC1)C(=O)c1ccc(N=C(N)N)cc1 | 759000 nM
C#CCN(C(=O)c1ccc(C(=N)N)cc1)[C@H](CCCC)C(C)(C)C(=O)N1CCC(CC(=O)O)CC1 | 708 nM
CC(C)(C(=O)/C=C/c1ccc(C(=N)N)cc1)C(=O)N1CCC(CC(=O)O)CC1 | 3470 nM
C[C@H](NC(=O)c1ccc(CNC(=N)N)cc1)C(=O)N1CCC(C(=O)O)CC1 | 708000 nM
C=CCOC(/C=C/c1ccc(C(=N)N)cc1)C(C)(C)C(=O)N1CCC(CC(=O)O)CC1 (stereo unspecified) | 135 nM
CCCC[C@@H](NC(=O)c1ccc(C(=N)N)cc1)C(C)(C)C(=O)N1CCC(CC(=O)O)CC1 | 41 nM
CN(CC(=O)N1CCC(C(=O)O)CC1)C(=O)c1ccc(CNC(=N)N)cc1 | 52500 nM
CC(C)C[C@@H](NC(=O)c1ccc(C(=N)N)cc1)C(C)(C)C(=O)N1CCC(CC(=O)O)CC1 | 41 nM
CC(C)(CNC(=O)c1ccc(C(=N)N)cc1)C(=O)N1CCC(CC(=O)O)CC1 [{1-[3-(4-Carbamimidoyl-benzoylamino)-2,2-dimethyl-propionyl]-piperidin-4-yl}-acetic acid] | 575 nM
CC[C@@H](NC(=O)c1ccc(C(=N)N2CCN(C)CC2)cc1F)C(C)(C)C(=O)N1CCC(CC(=O)O)CC1 | 36 nM
CC(C)(C(=O)N1CCC(CC(=O)O)CC1)[C@H](NC(=O)c1ccc(C(=N)N)cc1)c1cccc(Cl)c1 | 126 nM
CCCCC[C@@H](NC(=O)c1ccc(C(=N)N)cc1)C(C)(C)C(=O)N1CCC(CC(=O)O)CC1 | 79 nM
CC(C)(/C=C/C(=O)c1ccc(C(=N)N)cc1)C(=O)N1CCC(CC(=O)O)CC1 [{1-[(E)-5-(4-Carbamimidoyl-phenyl)-2,2-dimethyl-5-oxo-pent-3-enoyl]-piperidin-4-yl}-acetic acid] | 209 nM
CCCCCCOC(/C=C/c1ccc(C(=N)N)cc1)C(C)(C)C(=O)N1CCC(CC(=O)O)CC1 (stereo unspecified) | 794 nM

Compound | IC50
C/C=C/[C@@H](NC(=O)c1ccc(C(=N)N)cc1)C(C)(C)C(=O)N1CCC(CC(=O)O)CC1 | 85 nM
C[C@@H](NC(=O)c1ccc(C(=N)N)cc1F)C(C)(C)C(=O)N1CCC(CC(=O)O)CC1 | 38 nM
CCOC(/C=C/c1ccc(C(=N)N)cc1)C(C)(C)C(=O)N1CCC(CC(=O)O)CC1 (stereo unspecified) | 129 nM
CC(C)(C(=O)N1CCC(CC(=O)O)CC1)[C@@H](CCc1ccccc1)NC(=O)c1ccc(C(=N)N)cc1 | 79 nM
CC(C)[C@@H](NC(=O)c1ccc(C(=N)N)cc1)C(C)(C)C(=O)N1CCC(CC(=O)O)CC1 | 76 nM
CC(C)(CCC(=O)c1ccc(C(=N)N)cc1)C(=O)N1CCC(CC(=O)O)CC1 | 631 nM
CCC[C@@H](NC(=O)c1ccc(C(=N)N)cc1)C(C)(C)C(=O)N1CCC(CC(=O)O)CC1 | 41 nM
CC(C)(C(=O)N1CCC(CC(=O)O)CC1)C(O)/C=C/c1ccc(C(=N)N)cc1 (stereo unspecified) | 302 nM
C[C@H](NC(=O)c1ccc(C(=N)N)cc1)C(=O)N1CCC(C(=O)O)CC1 | 110000 nM
CC(C)(C(=O)N1CCC(CC(=O)O)CC1)[C@H](NC(=O)c1ccc(C(=N)N)cc1)c1ccccc1 | 115 nM
CN(CCC(=O)N1CCC(CC(=O)O)CC1)C(=O)c1ccc(C(=N)N)cc1 | 6460 nM
CC[C@@H](NC(=O)c1ccc(C(=N)N2CCC(O)CC2)cc1F)C(C)(C)C(=O)N1CCC(CC(=O)O)CC1 | 24 nM
CC(C)(C(=O)N1CCC(CC(=O)O)CC1)C(/C=C/c1ccc(C(=N)N)cc1)OCc1ccccc1 (stereo unspecified) | 363 nM
N=C(N)c1ccc(C(=O)NCCC(=O)N2CCC(COC(=O)O)CC2)cc1 | 18200 nM
CC[C@@H](NC(=O)c1ccc(C(=N)N)cc1F)C(C)(C)C(=O)N1CCC(CC(=O)O)CC1 | 31 nM
CC[C@@H](NC(=O)c1ccc(C(=N)N2CCN(c3ccc(F)cc3)CC2)cc1F)C(C)(C)C(=O)N1CCC(CC(=O)O)CC1 | 40 nM
CN(CC(=O)N1CCC(CC(=O)O)CC1)C(=O)c1ccc(C(=N)N)cc1 | 7590 nM
N=C(N)c1ccc(C(=O)N[C@@H](CC(=O)N2CCC(CC(=O)O)CC2)C(=O)OC2CCCCC2)cc1 | 1900 nM
